Laboratory results reported in the supplement of paper PMC8671470.
± gives the standard deviation of the averaged measurements.

Key:
Settings in all cases: 72 h
BV-173 [1] = system: BV-173
In short: (§1)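 Fifteen myeloid leukaemia lines in RPMI 1640 were treated for 72 h at 37 °C and 5% CO2 with five tenfold doses from 1 to 10,000 nM, in duplicate. ATP luminescence was normalised to vehicle and to a positive control at 10 µM, then fitted with a four-parameter log-logistic model. The IC50 came from these fits.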

HEL = system: HEL
In short: as §1

HL-60 [2] = system: HL-60
In short: as §1

K-562 [3] = system: K-562
In short: as §1

KCL-22 [4] = system: KCL-22
In short: as §1

KG-1 [5] = system: KG-1
In short: as §1

KU-812 [6] = system: KU-812
In short: as §1

LAMA-84 [7] = system: LAMA-84
In short: as §1

ML-2 [8] = system: ML-2
In short: as §1

MOLM-13 [9] = system: MOLM-13
In short: as §1

MV4-11 [10] = system: MV4-11
In short: as §1

Mono-Mac-6 = system: Mono-Mac-6
In short: as §1

NOMO-1 [11] = system: NOMO-1
In short: as §1

SHI-1 = system: SHI-1
In short: as §1

THP-1 [12] = system: THP-1
In short: as §1

HL-60 [13] = assay: cell viability (% survival relative to DMSO control); higher = less cytotoxic
In short: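 Area under the curve, where listed, was derived from four-parameter log-logistic fits with drc and PharmacoGx. These fits used CellTiter-Glo viability from HL-60 cells in RPMI 1640 with 10% FBS, normalised to DMSO wells and wells holding 10 μM proteasome inhibitor. The full library was rescreened on 384-well plates in duplicate at five tenfold concentrations, 1–10,000 nM, with DMSO or 100 nM of one of three metabolic inhibitors, for 72 h at 37 °C, 5% CO2.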

BV-173 [14] = assay: cell viability (% survival relative to DMSO control, bortezomib = 0%); higher = less cytotoxic
In short: (§2)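 After 72 h at 37 °C with 5% CO2, cell viability in 384-well plates was measured by CellTiter-Glo luminescence. The plates held compounds pre-printed at 1, 10, 100, 1000 or 10000 nM in duplicate, and cells from 10 AML and 5 CML lines seeded at densities titrated to linear growth. Percent survival is the duplicate mean, normalised to vehicle as 100% and a 10 µM positive control as 0%.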

HL-60 [15] = assay: as above
In short: as §2

K-562 [16] = assay: as above
In short: as §2

KCL-22 [17] = assay: as above
In short: as §2

KG-1 [18] = assay: as above
In short: as §2

KU-812 [19] = assay: as above
In short: as §2

LAMA-84 [20] = assay: as above
In short: as §2

ML-2 [21] = assay: as above
In short: as §2

MOLM-13 [22] = assay: as above
In short: as §2

MV4-11 [23] = assay: as above
In short: as §2

NOMO-1 [24] = assay: as above
In short: as §2

THP-1 [25] = assay: as above
In short: as §2

COc1ccc2c(C(=S)N(C)CC(=O)O)cccc2c1C(F)(F)F [Tolrestat]
Settings	IC50 (cell viability) [nM]
BV-173 [1]	> 10000
HEL	> 10000
HL-60 [2]	> 10000
K-562 [3]	> 10000
KCL-22 [4]	> 10000
KG-1 [5]	> 10000
KU-812 [6]	> 10000
LAMA-84 [7]	> 10000
ML-2 [8]	> 10000
MOLM-13 [9]	> 10000
MV4-11 [10]	> 10000
Mono-Mac-6	> 10000
NOMO-1 [11]	> 10000
SHI-1	> 10000
THP-1 [12]	> 10000

cell viability [%], HL-60 [13]
Settings	0.001 µM	0.01 µM	0.1 µM	1 µM	10 µM
co-treatment: AZD3965 100 nM	97.3 ± 1.8	106 ± 5.3	104 ± 3.8	97.9 ± 4.6	98.253 ± 0.033
co-treatment: DMSO vehicle	96 ± 0.68	106 ± 3.4	104 ± 2.6	99.23 ± 0.18	103.9 ± 0.94
co-treatment: GSK2194069 100 nM	99 ± 1.9	104.6 ± 0.97	97.5 ± 1.3	94.1 ± 4.1	97.1 ± 8.5
co-treatment: pictilisib 100 nM	95.7 ± 3	104 ± 8.2	96.8 ± 5.6	88.1 ± 8.6	100 ± 2

cell viability [%]
Settings	1 nM	10 nM	100 nM	1000 nM	10000 nM
BV-173 [14]	84.3	108	86.1	88.5	101
HL-60 [15]	107	104	122	49.1	101
K-562 [16]	95.4	104	87.4	99.8	105
KCL-22 [17]	94.8	103	105	106	106
KG-1 [18]	91.8	95.3	95.6	93.5	101
KU-812 [19]	88.6	118	99.8	90.8	104
LAMA-84 [20]	97.7	106	100	95.6	98.6
ML-2 [21]	90.2	99	103	111	97.8
MOLM-13 [22]	105	149	63.3	105	88.5
MV4-11 [23]	97.4	109	98.2	101	86.3
NOMO-1 [24]	97.2	107	106	118	95.5
THP-1 [25]	93.9	94.8	103	104	94.4

CC[C@@]1(O)C(=O)OCc2c1cc1n(c2=O)Cc2cc3c(CN(C)C)c(O)ccc3nc2-1 [Topotecan]
Settings	IC50 (cell viability) [nM]
BV-173 [1]	11.4
HEL	33.3
HL-60 [2]	22.5
K-562 [3]	97
KCL-22 [4]	59.4
KG-1 [5]	42.7
KU-812 [6]	40.7
LAMA-84 [7]	65.4
ML-2 [8]	24.5
MOLM-13 [9]	18
MV4-11 [10]	11.9
Mono-Mac-6	34.4
NOMO-1 [11]	40.5
SHI-1	24
THP-1 [12]	289

cell viability [%], HL-60 [13]
Settings	0.001 µM	0.01 µM	0.1 µM	1 µM	10 µM
co-treatment: AZD3965 100 nM	99.6 ± 2.4	98.4 ± 3.9	7.08 ± 1.3	3.55 ± 0.35	2.51 ± 0.3
co-treatment: DMSO vehicle	101 ± 3.4	103 ± 4.6	11.5 ± 1.8	5.98 ± 0.24	2.79 ± 1.4
co-treatment: GSK2194069 100 nM	91.07 ± 0.23	111 ± 3.9	10.4 ± 2.5	6.25 ± 0.94	3.68 ± 0.34
co-treatment: pictilisib 100 nM	102 ± 5.5	98 ± 16	9.22 ± 2.9	5.76 ± 3	3.31 ± 0.0069

cell viability [%]
Settings	1 nM	10 nM	100 nM	1000 nM	10000 nM
BV-173 [14]	100	56.7	-0.0236	0.0225	0.196
HL-60 [15]	94.9	81.7	0.181	0.081	1.02
K-562 [16]	90.8	92.7	48.3	13.2	4.27
KCL-22 [17]	97.2	97.8	27.9	5.33	1.56
KG-1 [18]	95.6	91.2	21.3	8.99	6.8
KU-812 [19]	95.5	99.6	13.1	3.16	1.45
LAMA-84 [20]	93.6	97.4	29.2	1.78	0.506
ML-2 [21]	94.6	84.8	0.565	0.238	3.1
MOLM-13 [22]	91.4	70.9	0.317	2.79	0.537
MV4-11 [23]	91.1	54.2	2	2.09	-0.156
NOMO-1 [24]	98.7	98.9	12.6	2.17	0.853
THP-1 [25]	98.8	102	78.5	30.4	13.6
